Reference: publication PMC2374418, “A prolonged methoxymorpholino doxorubicin (PNU-152243 or MMRDX) infusion schedule in patients with solid tumours: a phase 1 and pharmacokinetic study” (British Journal of Cancer, 2000)

How the values were obtained:
[1] = system: patients with intrinsic anthracycline-resistant tumours; assay: Phase I toxicity (CTC grading), MMRDX as 3 h intravenous infusion once every 4 weeks
Description: Nowadays, anthracyclines play an important role in chemothera- peutic treatment of a wide variety of tumour types. The clinical use of anthracyclines is limited by their toxicity profile, especially irreversible, cumulative dose-related cardiotoxicity, and by intrinsic or acquired resistance of tumours cells. Mechanisms of this resistance consist of several pathways, such as overexpression of drug efflux pumps (i.e. P-glycoprotein), decrease in topoiso- merase II enzyme levels, and increase in cellular detoxifying capacity (Kaye and Merry, 1985; Deffie et al, 1989; de Jong et al, 1990; Ford and Hait, 1990; Roninson, 1997). Morpholinyl anthracyclines, such as methoxymorpholino doxorubicin (MMRDX or PNU-152243), were synthesized in search for new anthracyclines with at least partially novel modes of action, including activity on multidrug-resistant (MDR) tumours. MMRDX is a novel doxorubicin derivative in which the nitrogen atom of the daunosamine is enclosed in a methoxymor- pholino ring (Figure 1). […] The working mechanism of morpholinyl anthracyclines appears to be different from other anthracyclines. Morpholinyl anthracyclines inhibit ribosomal gene transcription as well as topoisomerase I-mediated DNA-cleavage (Wassermann et al, 1988, 1990). […] Metabolic conversion of MMRDX by human liver microsomes and NADPH potentiated the cytotoxicity in an ovarian carcinoma cell line (Lau et al, 1994). […] Therefore, we decided to perform a phase I study with MMRDX administered as a 3 h infusion every 4 weeks in order to try to increase the MTD as compared with bolus administration. In addition, we assessed pharmacokinetics of prolonged MMRDX-infusion. A prolonged methoxymorpholino doxorubicin (PNU- 152243 or MMRDX) infusion schedule in patients with solid tumours: a phase 1 and pharmacokinetic study E Fokkema1 , J Verweij2 , AT van Oosterom3 , DRA Uges1 , R Spinelli4 , O Valota4 , EGE de Vries1 and HJM Groen1 1 Department of Pulmonology, Department of Pharmacy, Department of Internal Medicine, University Hospital Groningen, PO Box 30.001, 9700 RB Groningen, The Netherlands; 2 Rotterdam Cancer Institute and University Hospital, Rotterdam, The Netherlands; 3 University Hospital Leuven, Belgium; 4 Pharmacia & Upjohn, Milan, Italy Summary The aim of this phase I study was to assess feasibility, pharmacokinetics and toxicity of methoxymorpholino doxorubicin (MMRDX or PNU-152243) administered as a 3 h intravenous infusion once every 4 weeks. […] The first cohort of patients was treated with 1 mg m-2 of MMRDX. The next cohorts received 1.25 mg m-2 and 1.5 mg m-2 respectively. […] (c) 2000 Cancer Research Campaign Keywords: methoxymorpholino doxorubicin; pharmacokinetics; phase I study 767 Received 6 January 1999 Revised 2 August 1999 Accepted 25 August 1999 Correspondence to: EGE de Vries British Journal of Cancer (2000) 82(4), 767-771 (c) 2000 Cancer Research Campaign DOI: 10.1054/ bjoc.1999.0996, available online at http://www.idealibrary.com on PATIENTS AND METHODS Patients The study was performed between December 1994 and June 1996. Patients with intrinsic anthracycline-resistant tumours were accrued in three different centres in Belgium and The Netherlands.

[2] = system: intrinsically anthracycline-resistant tumours; assay: Tumour response according to WHO criteria; type: in vivo, human; conditions: 3 h i.v. infusion, 1.0-1.5 mg m-2, 13 evaluable patients
Description: Nowadays, anthracyclines play an important role in chemothera- peutic treatment of a wide variety of tumour types. The clinical use of anthracyclines is limited by their toxicity profile, especially irreversible, cumulative dose-related cardiotoxicity, and by intrinsic or acquired resistance of tumours cells. Mechanisms of this resistance consist of several pathways, such as overexpression of drug efflux pumps (i.e. P-glycoprotein), decrease in topoiso- merase II enzyme levels, and increase in cellular detoxifying capacity (Kaye and Merry, 1985; Deffie et al, 1989; de Jong et al, 1990; Ford and Hait, 1990; Roninson, 1997). Morpholinyl anthracyclines, such as methoxymorpholino doxorubicin (MMRDX or PNU-152243), were synthesized in search for new anthracyclines with at least partially novel modes of action, including activity on multidrug-resistant (MDR) tumours. MMRDX is a novel doxorubicin derivative in which the nitrogen atom of the daunosamine is enclosed in a methoxymor- pholino ring (Figure 1). […] The working mechanism of morpholinyl anthracyclines appears to be different from other anthracyclines. Morpholinyl anthracyclines inhibit ribosomal gene transcription as well as topoisomerase I-mediated DNA-cleavage (Wassermann et al, 1988, 1990). […] In addition, we assessed pharmacokinetics of prolonged MMRDX-infusion. […]

## COc1cccc2c1C(=O)c1c(O)c3c(c(O)c1C2=O)C[C@@](O)(C(=O)CO)C[C@@H]3O[C@H]1C[C@H](N2CCO[C@H](OC)C2)[C@H](O)[C@H](C)O1 [MMRDX, methoxymorpholino doxorubicin]
[1]; 1.25 mg m-2
  Median (range) nadir of leucocytes over all evaluable cycles: 2.7 (1.0-10.4) x 109 l-1
  Median (range) nadir of neutrophils over all evaluable cycles: 1.9 (0.5-8.3) x 109 l-1
  Median (range) nadir of platelets over all evaluable cycles: 190 (60-328) x 109 1-1
  Nausea, vomiting and diarrhoea exceeding grade II: one cycle
  Transient elevations in total bilirubin reaching CTC grade II: 2/15
[1]; 1.25 mg m-2, 17 cycles
  Leucocytes, CTC grade III toxicity: 6 % of total number of cycles
  Leucocytes, CTC grade IV toxicity: 0 % of total number of cycles
  Neutrophils, CTC grade III toxicity: 0 % of total number of cycles
  Neutrophils, CTC grade IV toxicity: 0 % of total number of cycles
  Platelets, CTC grade III toxicity: 0 % of total number of cycles
  Platelets, CTC grade IV toxicity: 0 % of total number of cycles
[1]; 1.25 mg m-2, six patients treated
  Patients with grade III/IV haematological toxicity: one patient
[1]; 1.5 mg m-2
  Death with neutropenic fever / sepsis during febrile neutropenia: One patient
  Grade III/IV fatigue: one out of 11 cycles
  Grade III/IV infection: four out of 11 cycles
  Median (range) nadir of leucocytes over all evaluable cycles: 1.4 (0.2-7.5) x 109 l-1
  Median (range) nadir of neutrophils over all evaluable cycles: 0.5 (0.2-7.3) x 109 l-1
  Median (range) nadir of platelets over all evaluable cycles: 55 (8-119) x 109 1-1
  Nausea and vomiting exceeding grade II: two out of 11 cycles
  Patients with grade III/IV haematological toxicity: all five patients
  Transient elevations in total bilirubin reaching CTC grade II: 3/11
[1]; 1.5 mg m-2, 7 cycles
  Neutrophils, CTC grade III toxicity: 29 % of total number of cycles
  Neutrophils, CTC grade IV toxicity: 43 % of total number of cycles
[1]; 1.5 mg m-2, 9 cycles
  Platelets, CTC grade III toxicity: 22 % of total number of cycles
  Platelets, CTC grade IV toxicity: 11 % of total number of cycles
[1]; 1.5 mg m-2, 10 cycles
  Leucocytes, CTC grade III toxicity: 40 % of total number of cycles
  Leucocytes, CTC grade IV toxicity: 30 % of total number of cycles
[1]; 1.5 mg m-2, three out of five patients
  Cycles reduced from 1.5 mg m-2 to 1.25 mg m-2 because of haematological toxicity: Four out of 11 cycles
[1]; 3 h i.v. infusion
  Patients with neutropenic fever: Three patients
[1]; 3 h i.v. infusion every 4 weeks
  Maximum tolerated dose (MTD): 1.25 mg m-2
[1]; 3 h i.v. infusion, 1.25 mg m-2
  CTC grade III/IV nausea and vomiting: 1/18
  Transient elevation in transaminases up to CTC grade III: 2/16
[1]; 3 h i.v. infusion, 1.5 mg m-2
  CTC grade III neutropenia: 2/7
  CTC grade III/IV nausea and vomiting: 2/11
  CTC grade IV neutropenia: 3/7
  Thrombocytopenia grade III: 2/9
  Thrombocytopenia grade IV: 1/9
  Transient elevation in transaminases up to CTC grade III: 4/11
[1]; 3 h i.v. infusion, all dose levels
  Cardiotoxicity: No cardiotoxicity
[1]; after two to six cycles
  LVEF at the end of treatment in eight patients: No significant decreases
[1]; all dose levels
  Grade III/IV toxicity for haemoglobin: No grade III/IV toxicity
  Phlebitis at the infusion site, nephro- and neurotoxicity: No phlebitis at the infusion site and no nephro- or neurotoxicity
  Start of late nausea and vomiting: around 4 days after treatment
[1]; highest dose level, after three cycles, LVEF remained in the normal range
  Decrease in LVEF, one patient: 13%
[1]; main toxicity
  Time of late haematological toxicity: ~22 day
[1]; overall
  Cumulative haematological toxicity for subsequent cycles: no cumulative haematological toxicity for subsequent cycles, except for platelets at the highest dose level
[2]
  Tumour responses: No tumour response
